Results: patent publication US20110146678A1, “PROCESS FOR IMPROVING CRYSTALLINITY” (priority 2008, published 2011)

Assays:
Format in all cases: physicochemical
[1] = Storage stability of FPF of binary DPI formulations at 25° C./75% RH
Description: All formulations were stored for one and three months at 25° C./75% RH. The FPF of the formulation containing micronized fluticasone propionate decreased by almost 50% after storage for one month and almost 70% after storage for three months compared to the FPF at t=0. However, the FPF of formulations containing particles prepared by the current invention were not as affected following storage in stress conditions. The FPF of sample 3 decreased 6% after storage for one month and decreased 3% after storage for three months compared to the FPF at t=0. The FPF of sample 2 decreased 7% after one months storage and 28% after three months storage compared to the FPF at t=0. There was a small yet statistically significant decrease, 29%, in the fine particle fraction of the formulation containing sample 4 which was prepared by alternative precipitation approach after one month with a decrease of 24% after 3 months storage compared to the FPF at t=0. This may be related to the planar morphology of the particles, and therefore, the particles are likely to develop greater adhesion to the lactose as result of capillary forces. It is clear that the FPF of samples 2 and 3 maintained a higher FPF than the micronized sample or sample 4 when stored for one or three months in the conditions described. The FPF of samples 2 and 3 decreased by a smaller percentage than the micronized sample when stored for one or three months in the conditions described. […] Sample 4 has a much lower FPF than samples 2 and 3 after storage for one or three months.

[2] = Cohesive-adhesive balance (CAB) by AFM colloid probe; details: for adhesive FP-Lactose interactions, times greater than cohesive FP-FP interactions (CAB analysis): equivalent contact geometry, 20° C., 45% RH; for adhesiveness to lactose (FIG. 29): comparison between batches
Source text: The cohesive-adhesive balance (CAB) approach of the AFM colloid probe technique is a development that enables direct quantification of the cohesive and adhesive nature—“the force balance” of an API within a formulation. It is a commercially available screening tool in determining the cohesive/adhesive force interactions between potential formulation components using milligrams or less of material.
The CAB approach measures the forces of interaction between API particles, mounted as colloid AFM probes, and well-defined crystalline surfaces of the API and carrier substrates. A CAB plot generated from the interaction of a number of probes allows a characteristic measurement of the cohesive nature of the API, in relation to its adhesive propensity with an excipient material to be quantified. The development of the CAB approach has overcome a number of the limitations associated with conventional AFM colloid probe methodologies, including issues regarding instrumental validation and the need to determine the true area of contact of the interacting surfaces. […] Drug-carrier combinations with a higher CAB ratio, such as >1, results in a higher fine particle fraction (FPF) upon aerosolisation, despite potential difference between the carriers in terms of size, shape, roughness and flowability. Drug-carrier combinations with a lower CAB ratio, such as, <1 result in greater […] of the active particle to the carrier, therefore the active particle is more likely to remain attached to the carrier. This means that in an inhaled composition, the active particle which remains attached to the carrier particle may not reach the lung and may be deposited in the throat or on the tongue. Preferably, the particles produced according to the present invention have much lower cohesiveness than particles prepared by other methods including micronization and milling. With respect to a measure of cohesiveness, since all substrates will be different with respect to their cohesive and adhesive properties, the CAB ratio is a dimensionless value which is a more useful measure for comparison. Preferably, the particles produced according to the present invention have CAB ratios with the carrier particles of 0.8-1.3, more preferably 0.9-1.2, more preferably, 1.0- 1.1. This is a careful balance between the cohesion of the drug with itself and the adhesion of the drug with the carrier.
The cohesive-adhesive balance (CAB) of micronized Fluticasone Propionate (FP) and batches of FP engineered by the method of the current invention (samples 2 and 3) and by a different method exemplified in WO 2008/114052 A1 (sample 4), as described in Example 1, were determined with respect to crystalline substrates of FP and lactose monohydrate. The CAB force balance of the different batches with respect to the crystalline substrates was determined as follows:
Particles (n=3) of all batches of FP were attached onto standard V-shaped tipless cantilevers (DNP-020, DI, CA, USA) using an epoxy resin glue (Araldite, Cambridge, UK).
Smooth crystals of lactose were produced on cooling of a heated saturated droplet sandwiched between cover slips. Smooth drug crystals were produced using sitting-drop anti-solvent crystallisation, in which the active was dissolved in acetone and the anti-solvent employed was water.
Individual force curves (n=1024) were conducted over a 10 μm×10 μm area at a scan rate of 4 Hz and a compressive load of 40 nN. Environmental conditions were maintained at a constant temperature of 20° C. (±1.5 ° C.) and relative humidity 45±3%.

[3] = Surface roughness by TappingMode AFM; details: 1 μm×1 μm areas, SD in brackets; for Ra(± nm): mean surface roughness; for Rq(± nm): root mean square roughness
Description: The degree of corrugation and surface morphology of samples was quantified using AFM. The surface topography and roughness measurements of particles of this invention were investigated using a Nanoscope IIIa controller, a Multimode AFM and a J-type scanner (all DI, Santa Babara, Calif., USA). All AFM surface topography images were recorded in Tapping Mode operation, in which, imaging was conducted using TESP Olympus tips (Di, Cambridge, UK) at a scan rate of 1 Hz. Surface roughness measurements were analysed over a 1 μm×1 μm area. To quantify the variations in the surface properties of the crystal surfaces, the root-mean-squared surface roughness measurement (Rq) and the mean surface roughness (Ra) of the height deviations of the surface asperities were computed.
The surface roughness and surface area of micronized Fluticasone Propionate (FP), sample 3 of FP prepared by the current invention and sample 4 of FP, as described in Example 2, were determined using atomic force microscopy (AFM) and BET surface area analysis, respectively. The roughness of imaged areas was quantified using the mean (Ra) and root mean square (Rq) of the variations in the height of the imaged surface. Furthermore, the surface area of samples was determined by a five-point BET nitrogen adsorption analysis.
The surface topography of the FP samples was investigated with TappingMode™ atomic force microscopy (AFM) using a Multimode AFM, J-type scanner, Nanoscope IIIa controller (all from DI, Cambridge, UK) and a silicon tip (model number OMCL-AC240TS, Olympus, Japan) to image three randomly selected 1 μm×1 μm square areas on the surface of particles of each material with a resolution of 512×512 pixels and a scan rate of 1 Hz. The roughness of imaged areas was quantified using the mean (Ra) and root mean square (Rq) of the variations in the height of the imaged surface, as calculated by the AFM software using the following equations: […]
where np is the number of points in the image and yi is the distance of point i from the centre line.

[4] = storage one month at 25° C./75% RH
[5] = storage three months at 25° C./75% RH

decrease of FPF compared to FPF at t=0 [1, 4] [%] | decrease of FPF compared to FPF at t=0 [1, 5] [%] | adhesion values (FP-lactose interaction) ([2]; AFM force measurement) | adhesive FP-Lactose interactions, times greater than cohesive FP-FP interactions (CAB analysis) ([2]; listed as sample 2 FP) | adhesive FP-Lactose interactions, times greater than cohesive FP-FP interactions (CAB analysis) ([2]; listed as sample 3 FP) | Ra(± nm) [3] | Rq(± nm) [3] | adhesiveness to lactose (FIG. 29) [2] | adhesive FP-Lactose interactions, times greater than cohesive FP-FP interactions (CAB analysis) ([2]; listed as sample 4 FP) | decrease of FPF compared to FPF at t=0 ([1]; storage one month at 25° C./75% RH, listed as micronized fluticasone propionate) [%] | decrease of FPF compared to FPF at t=0 ([1]; storage three months at 25° C./75% RH, listed as micronized fluticasone propionate) [%] | adhesion values ([2]; AFM force measurement) [nN] | adhesive FP-Lactose interactions, times greater than cohesive FP-FP interactions (CAB analysis) [2] | Structure (SMILES)
7 | 28 | 128-169 nN | 1.17 | – | – | – | – | – | – | – | – | – | CCC(=O)O[C@]1(C(=O)SCF)[C@H](C)C[C@H]2[C@@H]3C[C@H](F)C4=CC(=O)C=C[C@]4(C)[C@@]3(F)[C@@H](O)C[C@@]21C [Sample 2, Fluticasone propionate]
6 | 3 | 35-89 nN | – | 1.16 | 53.79 (2.11) nm | 72.11 (1.35) nm | – | – | – | – | – | – | CCC(=O)O[C@]1(C(=O)SCF)[C@H](C)C[C@H]2[C@@H]3C[C@H](F)C4=CC(=O)C=C[C@]4(C)[C@@]3(F)[C@@H](O)C[C@@]21C [Sample 3, Fluticasone propionate]
29 | 24 | 400-800 nN | – | – | 11.20 (1.55) nm | 16.52 (3.13) nm | least adhesive to lactose and SX | almost equal | – | – | – | – | CCC(=O)O[C@]1(C(=O)SCF)[C@H](C)C[C@H]2[C@@H]3C[C@H](F)C4=CC(=O)C=C[C@]4(C)[C@@]3(F)[C@@H](O)C[C@@]21C [Sample 4, fluticasone propionate, reference compound]
– | – | – | – | – | 30.97 (12.25) nm | 45.07 (11.76) nm | significantly more adhesive to lactose | – | ~50 | ~70 | 169 to 249 | 1.36 | CCC(=O)O[C@]1(C(=O)SCF)[C@H](C)C[C@H]2[C@@H]3C[C@H](F)C4=CC(=O)C=C[C@]4(C)[C@@]3(F)[C@@H](O)C[C@@]21C [micronized FP, Fluticasone Propionate]
